Test system: VEGF induced increases in intracellular calcium levels in HUVEC (human umbilical vein endothelial cells)
Assay: VEGF Stimulated Ca++ Signal in vitro (FLIPR)
Assay type: cell-based
Settings: Homo sapiens, 0.01 to 10.0 μM, VEGF 5 ng/mL
Procedure: VEGF Stimulated Ca^++ Signal in vitro
Automated FLIPR (Fluorometric Imaging Plate Reader) technology was used to screen for inhibitors of VEGF induced increases in intracellular calcium levels in fluorescent dye loaded endothelial cells. HUVEC (human umbilical vein endothelial cells) (Clonetics) were seeded in 96-well fibronectin coated black-walled plates overnight at 37° C./5%CO2. Cells were loaded with calcium indicator Fluo-4 for 45 minutes at 37° C. Cells were washed 4 times (Original Cell Wash, Labsystems) to remove extracellular dye. Test compounds were reconstituted in 100% DMSO and added to the cells to give a final DMSO concentration of 0.1%. For screening, cells were pre-incubated with test agents for 30 minutes, at a single concentration (10 μM) or at concentrations ranging from 0.01 to 10.0 μM followed by VEGF stimulation (5 ng/mL). Changes in fluorescence at 516 nm were measured simultaneously in all 96 wells using a cooled CCD camera. Data were generated by determining max-min fluorescence levels for unstimulated, stimulated, and drug treated samples. IC50 values for test compounds were calculated from % inhibition of VEGF stimulated responses in the absence of inhibitor.

SMILES | IC50 [nM]
Cc1cccc2c1C(=CNc1ccc(CCCCN3CCCCC3)cc1)C(=O)N2 [Example 320, 4-Methyl-3-{[4-(4-piperidin-1-yl-butyl)-phenylamino]-methylene}-1,3-dihydro-indol-2-one] | 330
O=C1Nc2cccc(F)c2C1=CNc1ccc(CCCCN2CCCCC2)cc1 [Example 321, 4-Fluoro-3-{[4-(4-piperidin-1-yl-butyl)-phenylamino]-methylene}-1,3-dihydro-indol-2-one] | 1180

Molecular target: T1, cytoplasmic domain of the human VEGF receptor (VEGFR-2) (Homo sapiens, UniProt P35968)
T1 construct: The cytoplasmic domain of the human VEGF receptor (VEGFR-2) was expressed as a Histidine-tagged fusion protein; Histidine tag
Assay: KDR Assay
Assay type: biochemical
Settings: His-VEGFR-2; 3.6 μM ATP
Procedure: The cytoplasmic domain of the human VEGF receptor (VEGFR-2) was expressed as a Histidine-tagged fusion protein following infection of insect cells using an engineered baculovirus. His-VEGFR-2 was purified to homogeneity, as determined by SDS-PAGE, using nickel resin chromatography. Kinase assays were performed in 96 well microtiter plates that were coated overnight with 30 μg of poly-Glu-Tyr (4:1) in 10 mM Phosphate Buffered Saline (PBS), pH 7.2-7.4. The plates were incubated with 1% BSA and then washed four times with PBS prior to starting the reaction. Reactions were carried out in 120 μL reaction volumes containing 3.6 μM ATP in kinase buffer (50 mM Hepes buffer pH 7.4, 20 mM MgCl2, 0.1 mM MnCl2 and 0.2 mM Na3VO4). Test compounds were reconstituted in 100% DMSO and added to the reaction to give a final DMSO concentration of 5%. Reactions were initiated by the addition 0.5 ng of purified protein. Following a ten minute incubation at 25° C., the reactions were washed four times with PBS containing 0.05% Tween-20. 100 μl of a monoclonal anti-phosphotyrosine antibody-peroxidase conjugate was diluted 1:10000 in PBS-Tween-20 and added to the wells for 30 minutes. Following four washes with PBS-Tween-20, 100 μl of O-phenylenediamine Dihydrochloride in Phosphate-citrate buffer, containing urea hydrogen peroxide, was added to the wells for 7 minutes as a colorimetric substrate for the peroxidase. The reaction was terminated by the addition of 100 μl of 2.5N H2SO4 to each well and read using a microplate ELISA reader set at 492 nm. IC50 values for compound inhibition were calculated directly from graphs of optical density (arbitrary units) versus compound concentration following subtraction of blank values.

T1 sequence (P35968 786-1356): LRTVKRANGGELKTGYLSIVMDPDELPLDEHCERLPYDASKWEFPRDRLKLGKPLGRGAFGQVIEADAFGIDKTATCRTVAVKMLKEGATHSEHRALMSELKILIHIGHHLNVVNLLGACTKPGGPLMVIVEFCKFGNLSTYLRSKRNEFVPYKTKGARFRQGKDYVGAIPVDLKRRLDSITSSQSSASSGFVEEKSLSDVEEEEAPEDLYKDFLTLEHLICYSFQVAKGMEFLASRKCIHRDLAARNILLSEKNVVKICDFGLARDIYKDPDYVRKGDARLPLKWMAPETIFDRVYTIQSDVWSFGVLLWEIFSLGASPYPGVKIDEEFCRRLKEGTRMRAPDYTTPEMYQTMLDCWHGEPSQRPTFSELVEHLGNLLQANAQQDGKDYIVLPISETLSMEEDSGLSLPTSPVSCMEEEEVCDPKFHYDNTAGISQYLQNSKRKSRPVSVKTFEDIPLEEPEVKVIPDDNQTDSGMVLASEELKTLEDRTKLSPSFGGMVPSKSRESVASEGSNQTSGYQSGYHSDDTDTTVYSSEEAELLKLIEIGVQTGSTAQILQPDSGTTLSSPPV

SMILES | IC50 [nM]
Cc1cccc2c1C(=CNc1ccc(OCCCCN3CCCCC3)cc1)C(=O)N2 [Example 246, 4-Methyl-3-{[4-(4-piperidin-1-yl-butoxy)-phenylamino]-methylene}-1,3-dihydro-indol-2-one] | 90
O=C1Nc2ccccc2C1=CNc1ccc(CN2CCCCC2)cc1 [Example 251, 3-[(4-Piperidin-1-ylmethyl-phenylamino)-methylene]-1,3-dihydro-indol-2-one] | 140
CCN(CC)CCOc1ccc(NC=C2C(=O)Nc3cccc(C)c32)cc1 [Example 264, 3-{[4-(2-Diethylamino-ethoxy)-phenylamino]-methylene}-4-methyl-1,3-dihydro-indol-2-one] | 70
Cc1cccc2c1C(=CNc1ccc(OCC3CCCN(C)C3)cc1)C(=O)N2 (stereo not drawn) [Example 278, 4-Methyl-3-{[4-(1-methyl-piperidin-3-ylmethoxy)-phenylamino]-methylene}-1,3-dihydro-indol-2-one] | 80
CN1CCCC(COc2ccc(NC=C3C(=O)Nc4ccccc43)cc2)C1 (stereo not drawn) [Example 280, 3-{[4-(1-Methyl-piperidin-3-ylmethoxy)-phenylamino]-methylene}-1,3-dihydro-indol-2-one] | 460
Cc1cccc2c1C(=CNc1ccc(CCN3CCCCC3)cc1)C(=O)N2 [Example 286, 4-Methyl-3-{[4-(2-piperidin-1-yl-ethyl)-phenylamino]-methylene}-1,3-dihydro-indol-2-one] | 40
O=C1Nc2ccccc2C1=CNc1ccc(CN2CCOCC2)cc1 [Example 290, 3-[(4-Morpholin-4-ylmethyl-phenylamino)-methylene]-1,3-dihydro-indol-2-one] | 580
Cc1cccc2c1C(=CNc1ccc(CN3CCOCC3)cc1)C(=O)N2 [Example 292, 4-Methyl-3-[(4-morpholin-4-ylmethyl-phenylamino)-methylene]-1,3-dihydro-indol-2-one] | 90
O=C1Nc2cc(F)ccc2C1=CNc1ccc(CN2CCOCC2)cc1 [Example 295, 6-Fluoro-3-[(4-morpholin-4-ylmethyl-phenylamino)-methylene]-1,3-dihydro-indol-2-one] | 180
Cc1cccc2c1C(=CNc1ccc(NCCCN3CCOCC3)cc1)C(=O)N2 [Example 296, 4-Methyl-3-{[4-(3-morpholin-4-yl-propylamino)-phenylamino]-methylene}-1,3-dihydro-indol-2-one] | 140
O=C1Nc2ccccc2C1=CNc1ccc(NCCCN2CCOCC2)cc1 [Example 297, 3-{[4-(3-Morpholin-4-yl-propylamino)-phenylamino]-methylene}-1,3-dihydro-indol-2-one] | 390
O=C1Nc2cc(F)ccc2C1=CNc1ccc(NCCCN2CCOCC2)cc1 [Example 298, 6-Fluoro-3-{[4-(3-morpholin-4-yl-propylamino)-phenylamino]-methylene}-1,3-dihydro-indol-2-one] | 340
O=C1Nc2ccc(Cl)cc2C1=CNc1ccc(NCCCN2CCOCC2)cc1 [Example 299, 5-Chloro-3-{[4-(3-morpholin-4-yl-propylamino)-phenylamino]-methylene}-1,3-dihydro-indol-2-one] | 140
O=C1Nc2ccccc2C1=CNc1ccc(CCN2CCOCC2)cc1 [Example 306, 3-{[4-(2-Morpholin-4-yl-ethyl)-phenylamino]-methylene}-1,3-dihydro-indol-2-one] | 620
Cc1cccc2c1C(=CNc1ccc(CCN3CCOCC3)cc1)C(=O)N2 [Example 308, 4-Methyl-3-{[4-(2-morpholin-4-yl-ethyl)-phenylamino]-methylene}-1,3-dihydro-indol-2-one] | 120

Other lines, results leading:

IC50 [nM] | SMILES
150 | Cc1cccc2c1C(=CNc1ccc(OCCN3CCCCC3)cc1)C(=O)N2 [Example 252, 4-Methyl-3-{[4-(2-piperidin-1-yl-ethoxy)-phenylamino]-methylene}-1,3-dihydro-indol-2-one]
170 | O=C1Nc2cc(F)ccc2C1=CNc1ccc(OCCN2CCCCC2)cc1 [Example 253, 6-Fluoro-3-{[4-(2-piperidin-1-yl-ethoxy)-phenylamino]-methylene}-1,3-dihydro-indol-2-one]
500 | O=C1Nc2ccccc2C1=CNc1ccc(OCCN2CCCCC2)cc1 [Example 254, 3-{[4-(2-Piperidin-1-yl-ethoxy)-phenylamino]-methylene}-1,3-dihydro-indol-2-one]
300 | O=C1Nc2cc(F)ccc2C1=CNc1ccc(CN2CCCCC2)cc1 [Example 259, 6-Fluoro-3-[(4-piperidin-1-ylmethyl-phenylamino)-methylene]-1,3-dihydro-indol-2-one]
360 | O=C1Nc2ccc(F)cc2C1=CNc1ccc(OCCN2CCCCC2)cc1 [Example 263, 5-Fluoro-3-{[4-(2-piperidin-1-yl-ethoxy)-phenylamino]-methylene}-1,3-dihydro-indol-2-one]
110 | Cc1cccc2c1C(=CNc1ccc(OCCN3CCCC3)cc1)C(=O)N2 [Example 270, 4-Methyl-3-{[4-(2-pyrrolidin-1-yl-ethoxy)-phenylamino]-methylene}-1,3-dihydro-indol-2-one]
460 | O=C1Nc2ccccc2C1=CNc1ccc(OCCN2CCCC2)cc1 [Example 272, 3-{[4-(2-Pyrrolidin-1-yl-ethoxy)-phenylamino]-methylene}-1,3-dihydro-indol-2-one]
210 | O=C1Nc2ccc(F)cc2C1=CNc1ccc(OCCN2CCCC2)cc1 [Example 274, 5-Fluoro-3-{[4-(2-pyrrolidin-1-yl-ethoxy)-phenylamino]-methylene}-1,3-dihydro-indol-2-one]
160 | CN1CCCC(COc2ccc(NC=C3C(=O)Nc4cc(F)ccc43)cc2)C1 (stereo not drawn) [Example 279, 6-Fluoro-3-{[4-(1-methyl-piperidin-3-ylmethoxy)-phenylamino]-methylene}-1,3-dihydro-indol-2-one]
330 | CN1CCCC(COc2ccc(NC=C3C(=O)Nc4ccc(F)cc43)cc2)C1 (stereo not drawn) [Example 282, 5-Fluoro-3-{[4-(1-methyl-piperidin-3-ylmethoxy)-phenylamino]-methylene}-1,3-dihydro-indol-2-one]
250 | O=C1Nc2ccccc2C1=CNc1ccc(CCN2CCCCC2)cc1 [Example 284, 3-{[4-(2-Piperidin-1-yl-ethyl)-phenylamino]-methylene}-1,3-dihydro-indol-2-one]
330 | O=C1Nc2ccc(F)cc2C1=CNc1ccc(CCN2CCCCC2)cc1 [Example 288, 5-Fluoro-3-{[4-(2-piperidin-1-yl-ethyl)-phenylamino]-methylene}-1,3-dihydro-indol-2-one]
260 | O=C1Nc2cc(F)ccc2C1=CNc1ccc(CCN2CCCCC2)cc1 [Example 289, 6-Fluoro-3-{[4-(2-piperidin-1-yl-ethyl)-phenylamino]-methylene}-1,3-dihydro-indol-2-one]
380 | O=C1Nc2ccc(F)cc2C1=CNc1ccc(CN2CCOCC2)cc1 [Example 294, 5-Fluoro-3-[(4-morpholin-4-ylmethyl-phenylamino)-methylene]-1,3-dihydro-indol-2-one]
420 | O=C1Nc2ccc(F)cc2C1=CNc1ccc(NCCCN2CCOCC2)cc1 [Example 300, 5-Fluoro-3-{[4-(3-morpholin-4-yl-propylamino)-phenylamino]-methylene}-1,3-dihydro-indol-2-one]
230 | O=C1Nc2ccc(F)cc2C1=CNc1ccc(CCN2CCOCC2)cc1 [Example 310, 5-Fluoro-3-{[4-(2-morpholin-4-yl-ethyl)-phenylamino]-methylene}-1,3-dihydro-indol-2-one]

Reference: patent US20030225152A1, “3-(Arylamino)methylene-1, 3-dihydro-2h-indol-2-ones as kinase inhibitors” (priority 2001, published 2003)
